Key:
mouse B16 melanoma = experiment: Growth inhibition of tumor cells in culture, Coulter Counter cell count after 5 days; type: cell-based; conditions: 120 h, read-out: IC50 of fused ring triazole (concentration inhibiting growth of cell line by 50%)
Protocol: (§1) Experiments were performed in accordance with the procedure described by Yurkow and Laskin (Cancer Chemother. Pharmacol. 1991 27:315-319). In these experiments, tumor cells were maintained in culture in growth medium consisting of Dulbecco's modified Eagle's medium (DMEM) supplemented with 10% fetal bovine. Tumor cells were plated at low density (5000 cells/well) in 6-well tissue culture dishes and allowed to adhere overnight. The medium was then replaced with phenol red-free DMEM supplemented with increasing concentrations of the compounds, with zero concentration of compound serving as the control. Six concentrations and a control were used for each inhibitor, and each concentration was tested in triplicate. After 5 days, cells were removed from the dishes and enumerated using a Coulter Counter (Coulter Electronics, Inc.). The controls and treated samples at each concentration were averaged. Data are presented as the percentage of control growth at each concentration of the compound, plus and minus the standard error. The IC50 for growth inhibition was the concentration of each compound that inhibited growth by 50%. These are depicted in Table 1.

human CX-1 colon cells = experiment: as above; type: cell-based; conditions: 120 h, read-out: IC50 of fused ring triazole (concentration inhibiting growth of cell line by 50%)
Protocol: as §1

[1] = test system: mouse PAM 212 keratinocytes; experiment: as above; type: cell-based; conditions: PAM212, 120 h, read-out: IC50 of fused ring triazole (concentration inhibiting growth of cell line by 50%)
Protocol: as §1

[2] = test system: human HeLa cervical carcinoma; experiment: as above; type: cell-based; conditions: 120 h, read-out: IC50 of fused ring triazole (concentration inhibiting growth of cell line by 50%)
Protocol: as §1

[3] = Fluorescence excitation and emission spectra (Perkin-Elmer LS-5B Luminescence Spectrometer); type: physicochemical; conditions: 10 micromolar solution
Protocol: Excitation and emission spectra of a 10 micromolar solution of compounds IIa and IIb were determined using a Perkin-Elmer LS-5B Luminescence Spectrometer.

Emission peak [3] | Excitation peaks [3] | SMILES | IC50 (mouse B16 melanoma) | IC50 (human CX-1 colon cells) | IC50 [1] | IC50 [2]
358 nm |  | C1=Nn2c(nnc2-c2ccncc2)S/C1=C\c1ccccc1 [Compound IIa, 3-(4-pyridyl)-7-(phenylmethylene)-s-triazolo[3,4-b] [1,3,4]-thiadiazine] | 9 µM | 17 µM | 10 µM | 4 µM
320 nm | 249 nm | C1=Nn2c(nnc2-c2ccccn2)S/C1=C\c1ccccc1 [Compound IIb, 3-(2-pyridyl)-7-(phenylmethylene)-s-triazolo[3,4-b] [1,3,4]-thiadiazine] | 15 µM | 30 µM | 18 µM | 9 µM
 |  | C1=Nn2c(nnc2-c2cccs2)S/C1=C\c1ccccc1 [Compound IId, 3-(2-thienyl)-7-(phenylmethylene)-s-triazolo[3,4-b] [1,3,4]-thiadiazine] | 23 µM | 20 µM | 18 µM | 28 µM
